Structures are written as SMILES. Structures can show the parent of a compound that is named as a salt.

This test has as its system recombinant guanylate cyclase reporter cell line. Briefly: Effect on a recombinant guanylate cyclase reporter cell line. The note with it: in some cases mean values from individual determinations, read-out: MEC (minimum effective concentration). The class given is cell-based. As to the method: B-2. Effect on a Recombinant Guanylate Cyclase Reporter Cell Line
The cellular activity of the compounds according to the invention is determined using a recombinant guanylate cyclase reporter cell line, as described in F. Wunder et al., Anal. Biochem. 339, 104-112 (2005).
Representative MEC values (MEC=minimum effective concentration) for the compounds of the invention are shown in the table below (in some cases as mean values from individual determinations): […]
For the compound `Cc1nc2c(OCc3c(F)cccc3F)cccn2c1-c1ncnc(NCC(C)(N)CCC(F)(F)F)n1` (single isomer, unassigned; enantiomer b) [Example 12, ent-N^1-(4-{8-[(2,6-Difluorobenzyl)oxy]-2-methylimidazo[1,2-a]pyridin-3-yl}-1,3,5-triazin-2-yl)-5,5,5-trifluoro-2-methylpentane-1,2-diamine (enantiomer B)], the minimal effective concentration amounted to 1 µM.

As for `Cc1nc2c(OCc3c(F)cccc3F)cccn2c1-c1ccc(NCc2ccccc2)nc1` [Example 1, N-Benzyl-5-{8-[(2,6-difluorobenzyl)oxy]-2-methylimidazo[1,2-a]pyridin-3-yl}pyridine-2-amine], the minimal effective concentration was determined as 0.1 µM.

For the compound `COCCNc1ccc(-c2c(C)nc3c(OCc4c(F)cccc4F)cccn23)cn1` [Example 2], the minimal effective concentration is 0.1 µM.

As to `CCN(C)c1ccc(-c2c(C)nc3c(OCc4c(F)cccc4F)cccn23)cn1` [Example 3], the minimal effective concentration was found to be 0.2 µM.

For `Cc1nc2c(OCc3c(F)cccc3F)cccn2c1-c1ccc(N2CC(C)OC(C)C2)nc1` (stereo not drawn) [Example 4], the minimal effective concentration came out at 1 µM.

For the compound `Cc1nc2c(OCc3c(F)cccc3F)cccn2c1-c1ccc(Nc2ccccc2)nc1` [Example 5], the minimal effective concentration amounted to 3 µM.

For the compound `Cc1nc2c(OCc3c(F)cccc3F)cccn2c1-c1cnc(N2CCN(C)CC2)nc1` [Example 6, 8-[(2,6-Difluorobenzyl)oxy]-2-methyl-3-[2-(4-methylpiperazin-1-yl)pyrimidin-5-yl]imidazo[1,2-a]pyridine], the minimal effective concentration amounted to 10 µM.

As to `Cc1cc(OCc2c(F)cccc2F)c2nc(C)c(-c3nc(N)nc(N)n3)n2c1` [Example 7, 6-{8-[(2,6-Difluorobenzyl)oxy]-2,6-dimethylimidazo[1,2-a]pyridin-3-yl}-1,3,5-triazine-2,4-diamine], the minimal effective concentration was 0.3 µM.

For `Cc1cc(OCc2c(F)cccc2F)c2nc(C)c(-c3nc(N)nc(N(C)C)n3)n2c1` [Example 8, 6-{8-[(2,6-Difluorobenzyl)oxy]-2,6-dimethylimidazo[1,2-a]pyridin-3-yl}-N, N-dimethyl-1,3,5-triazine-2,4-diamine], the minimal effective concentration came out at 0.3 µM.

Consider `CCCNc1nc(N)nc(-c2c(C)nc3c(OCc4c(F)cccc4F)cc(C)cn23)n1` [Example 9, 6-{8-[(2,6-Difluorobenzyl)oxy]-2,6-dimethylimidazo[1,2-a]pyridin-3-yl}-N-propyl-1,3,5-triazine-2,4-diamine], for which the minimal effective concentration was determined as 0.3 µM.

For `Cc1cc(OCc2c(F)cccc2F)c2nc(C)c(-c3cc(NCC(C)(C)N)ncc3F)n2c1` [Example 10, N′-(4-{8-[(2,6-Difluorobenzyl)oxy]-2,6-dimethylimidazo[1,2-a]pyridin-3-yl}-5-fluoropyridin-2-yl)-2-methylpropane-1,2-diamine], the minimal effective concentration turned out to be 0.1 µM.

Regarding `Cc1nc2c(OCc3c(F)cccc3F)cccn2c1-c1nc(Cl)nc(NCC(C)(C)N)n1` [Example 11, N′-(4-Chloro-6-{8-[(2,6-difluorobenzyl)oxy]-2-methylimidazo[1,2-a]pyridin-3-yl}-1,3,5-triazin-2-yl)-2-methylpropane-1,2-diamine], the minimal effective concentration was determined as 0.3 µM.

As for `Cc1cc(OCc2c(F)cccc2F)c2nc(C)c(-c3ccnc(N4CCNCC4)c3)n2c1` [Example 13, 8-[(2,6-Difluorobenzyl)oxy]-2,6-dimethyl-3-[2-(piperazin-1-yl)pyridin-4-yl]imidazo[1,2-a]pyridine], the minimal effective concentration came to 0.2 µM.

With `Cc1cc(OCc2c(F)cccc2F)c2nc(C)c(-c3cccc(N4CCCC4)c3)n2c1` [Example 14, 8-[(2,6-Difluorobenzyl)oxy]-2,6-dimethyl-3-[3-(pyrrolidin-1-yl)phenyl]imidazo[1,2-a]pyridine], the minimal effective concentration is 6.5 µM.

`CC(=O)Nc1cccc(-c2c(C)nc3c(OCc4c(F)cccc4F)cc(C)cn23)c1` [Example 15, N-(3-{8-[(2,6-Difluorobenzyl)oxy]-2,6-dimethylimidazo[1,2-a]pyridin-3-yl}phenyl)acetamide]: the minimal effective concentration was 0.02 µM.

With `Cc1cc(OCc2c(F)ccc(F)c2F)c2nc(C)c(-c3nccc(N4CCCC4)n3)n2c1` [Example 16, 2,6-Dimethyl-3-[4-(pyrrolidin-1-yl)pyrimidin-2-yl]-8-[(2,3,6-trifluorobenzyl)oxy]imidazo[1,2-a]pyridine trifluoroacetate], the minimal effective concentration turned out to be 3 µM.

On to `CC(=O)Nc1cccc(-c2c(C)nc3c(OCC4CCCCC4)cccn23)c1` [Example 19, N-{3-[8-(Cyclohexylmethoxy)-2-methylimidazo[1,2-a]pyridin-3-yl]phenyl}acetamide], for which the minimal effective concentration was found to be 0.2 µM.

In the case of `CC(=O)Nc1cccc(-c2c(C)nc3c(OCc4ncccc4F)cc(Cl)cn23)c1` [Example 20, N-(3-{6-Chloro-8-[(3-fluoropyridin-2-yl)methoxy]-2-methylimidazo[1,2-a]pyridin-3-yl}phenyl)acetamide], the minimal effective concentration came to 0.3 µM.

The values are drawn from patent US10292970B2, “Heteroaryl-substituted imidazo[1,2-A]pyridines and their use” (BAYER PHARMA AKTIENGESELLSCHAFT, priority 2014, dated 2019).
